Experimental data reported in patent US9018251B2, “Method for treating brain cancer or reducing temozolomide-resistance of brain cancer cells” (China Medical University, priority 2011, dated 2015).
pIC50: −log10 of the molar value. Like-named read-outs stand apart in the source and are kept apart here.

Assays:
[1] = system: brain cancer cell line G5T/VGH; experiment: MTT cell viability assay, G5T/VGH; type: cell-based
Source text: (§1) The MTT (3-[4,5-dimethylthiahiazo-2-yl]-2,4-dipheny-tetrazolium bromide) cell viability assay was used to study the mortality effect of temozolomide to various brain cancer cell lines. (See Pauwels et al., J. Virol. Methods, 1988, 20, 309-321 for the MTT cell viability assay, which is incorporated hereinto by reference).

[2] = system: brain cancer cell line 8901; experiment: MTT cell viability assay, 8901 (with CalcuSyn combination index); type: cell-based; details: for pIC50: 48 h, single agent, cultured 2 days, MTT
Source text: as §1

[3] = system: brain cancer cell line GBM22-TMZ; experiment: In vivo survival analysis, glioblastoma orthotopic xenografts; parameters: species or system Mice
Description: A survival analysis was carried out to investigate the antiglioma effect of the combination of (Z)-butylidenephthalide and temozolomide in vivo. Mice with established glioblastoma orthotopic xenografts from brain cancer cell line GBM22-TMZ were randomized to carry out the therapy with indicated temozolomide (66 mg/kg/day; 5 days), (Z)-butylidenephthalide (50 or 100 mg/kg/day; 5 days), or combinations thereof. Observation was recorded until the mice reached a moribund state, and survival results are shown as Kaplan-Meier survival curves.

[4] = system: brain cancer cell line GBM22-TMZ; experiment: MTT cell viability assay, GBM22-TMZ (with CalcuSyn combination index); details: Homo sapiens, 48 h
Description: In a 96-microwell plate, each well was cultured with 3×10^3 cells of brain cancer cell line 8901 which have temozolomide-resistance. The next day, different concentrations of temozolomide (0 to 1200 μM, 200 μL) or the combination of temozolomide and (Z)-butylidenephthalide (0 to 200 μM, 200 μL) were dropped into the well along the interior wall of the plate. Four microwell plates were used for each analysis, and four wells were used for each combination of various drug concentrations. A solvent was placed into the first row as the control group. After the cells were cultured for 2 days, the culture solution was drawn and discarded, and a culture solution containing 500 μg/mL of MTT (200 μL) was added to culture for another 4 hours. The culture solution was drawn and discarded, and 200 μL of DMSO was added, and then the microwell plate spectrometer was used to measure the absorbance of the cells at a wavelength of 570 nm. The cell viability rate and mortality rate and the concentrations of temozolomide that reached the mortality rate of 50% of various brain cancer cell lines (IC50) were calculated based on the absorbance.
In a 96-microwell plate, each well was cultured with 3×10^3 cells of brain cancer cell line 8901 or GBM22-TMZ with temozolomide-resistance. […] The microwell plate spectrometer was then used to measure the absorbance of the cells at a wavelength of 570 nm. […]

[5] = system: brain cancer cell line GBM22-TMZ; experiment: In vivo subcutaneous tumor transplant test; parameters: species or system Balb/c nude mice; details: 28th day
Description: An in vivo test was carried out by a subcutaneous tumor transplant mode to observe the anti-tumor activity of (Z)-butylidenephthalide, temozolomide, or their combination in vivo.
First, 2×10^6 cells of brain cancer cell line GBM22-TMZ with temozolomide-resistance were cultured sterilely and subcutaneously injected to Balb/c nude mice (purchased from the National Laboratory Animal Center, Taiwan) to carry out the in vivo tumor transplant experiment. When the tumor was grown to 100 mm^3 (length×width×width/2), the subcutaneous administration was carried out for treatment. On the contralateral side of the tumor tissue, at a position more than 1.5 cm, (Z)-butylidenephthalide was injected, or temozolomide was orally administrated, once per day consecutively for 5 days. In the treatment group in which (Z)-butylidenephthalide and temozolomide were administrated in combination, (Z)-butylidenephthalide was first subcutaneously administrated (SC), and 2 hours later, temozolomide was orally administrated (PO). After administration on the 5th day, the tumor size and the body weight of the mice were observed continuously for 28 days, and were measured every 3 days. The measurement value of the tumor size on the 28th day was used as the assessment result of the inhibiting activity on tumor growth. The smaller the value, the better the inhibition effect. […] There was a significant difference when P value was less than […]. The results are shown in Table 7, and FIGS. 11A and 11B.

[6] = system: brain cancer cell line DBTRG; experiment: MTT cell viability assay, DBTRG; type: cell-based; details: for pIC50: 48 h, read-out: IC50 value; for viability at 500 µM: Concentration 500 μM
Description: as §1
The cell viability rate and mortality rate were calculated based on the absorbance.

[7] = system: brain cancer cell line 8401; experiment: MTT cell viability assay, 8401; type: cell-based
Source text: as §1

MGMT [8] = experiment: MGMT RNA expression (RT-PCR, gel electrophoresis) in 8901; type: cell-based; details: as concentration increased, treated 3 to 48 hours, FIG. 3
Description: (§2) Brain cancer cell lines 8901 and GBM22-TMZ with temozolomide-resistance were cultured in a petri dish with a diameter of 10 cm, respectively. A PBS solution was used to rinse the cells after the cell proliferation reached to 60% by volume of the dish. (Z)-butylidenephthalide or (E)-butylidenephthalide was added to treat the cells for 3 to 48 hours, and then the cells were collected. The total RNA of the cells was extracted and reverse transcribed into cDNA (using 50 micro-mole of […] and 50 pico-mole of random hexamers primer). One unit of ExTaq DNA polymerase, 200 nM dNTP (1 μL), and 2.5 mM of MgCl2 (1 μL) were added, and then 20 mM of MGMT nucleotide primers (1 μL each) and 50 μL of water were added.
The sample was placed into a polymerase chain reaction (PCR) system (GeneAmp PCR System 2400, Perkin Elmer, USA). The condition was set as: denaturing, 94° C., 30 s; annealing, 55° C., 30 s; extension, […]; 30 cycles; and finally 72° C., 10 minutes. Afterwards, the system temperature was decreased to 4° C. to terminate the reaction. The product from the PCR was analysed by a 1.5% gel electrophoresis. The gel was analysed by Fluoro-Chem imaging system (Alpha InnoTech Cooperation) to determine the expression level of MGMT gene.

MGMT [9] = experiment: MGMT protein expression (SDS-PAGE, western blotting) in 8901; type: cell-based; details: as concentration increased, treated 3 to 48 hours, FIG. 4
Description: as §2
(§3) In another aspect, the intracellular proteins of the aforesaid brain cancer cell lines 8901 and GBM22-TMZ were collected. SDS-PAGE and western blotting were used to analyze the expression of the MGMT protein in the brain cancer cell lines.

MGMT [10] = experiment: MGMT protein expression (SDS-PAGE, western blotting) in GBM22-TMZ; type: cell-based, human; details: as concentration increased, FIG. 5
Description: as §2, §3

[11] = 48 h, single agent, cultured 2 days, MTT
[12] = read-out: Viability rate of DBTRG(%)

Q: With Cn1nnc2c(C(N)=O)ncn2c1=O [temozolomide] as the molecule, how does the pIC50 [1, 11] read?
A: 2.78

Q: What about the pIC50 [2] of the same molecule?
A: 2.92

Q: What about the Survival rate ([3]; temozolomide (66 mg/kg), Day 0) of the same molecule?
A: 100%

Q: What about the Survival rate ([3]; temozolomide (66 mg/kg), Day 5) of the same molecule?
A: 100%

Q: And the Survival rate ([3]; temozolomide (66 mg/kg), Day 8)?
A: 100%

Q: And the Survival rate ([3]; temozolomide (66 mg/kg), Day 11)?
A: 66%

Q: And the Survival rate ([3]; temozolomide (66 mg/kg), Day 14)?
A: 66%

Q: What about the Survival rate ([3]; temozolomide (66 mg/kg), Day 18) of the same molecule?
A: 66%

Q: And the Survival rate ([3]; temozolomide (66 mg/kg), Day 21)?
A: 33%

Q: What about the Survival rate ([3]; temozolomide (66 mg/kg), Day 28) of the same molecule?
A: 0%

Q: What about the Survival rate ([3]; temozolomide (66 mg/kg), Day 30) of the same molecule?
A: 0%

Q: What about the pIC50 [4] of the same molecule?
A: < 2.49

Q: What about the “Relative tumor size (fold)” value ([5]; PO consecutively for 5 days, 66 mg/kg/day) of the same molecule?
A: 4.3 fold

Q: What about the pIC50 ([6]; DBTRG, single agent, cultured 2 days, MTT) of the same molecule?
A: 2.78

Q: What about the pIC50 [7, 11] of the same molecule?
A: 3.08

Q: For CCC/C=C1/OC(=O)c2ccccc21 [(E)-butylidenephthalide, reference compound], which “expression of RNA of MGMT” value (MGMT [8]) is on record?
A: no significant changes

Q: And the “expression of proteins of MGMT” value (MGMT [9])?
A: no significant changes

Q: What about the viability at 500 µM [6, 12] of the same molecule?
A: 88%

Q: And the viability at 1500 µM ([6]; Concentration 1500 μM, read-out: Viability rate of DBTRG(%))?
A: 81%

Q: And the viability at 2500 µM ([6]; Concentration 2500 μM, read-out: Viability rate of DBTRG(%))?
A: 70%

Q: What about the “killing of brain cancer cells” value ([6]; DBTRG, high dosage of 2500 μM) of the same molecule?
A: cannot kill brain cancer cells effectively

Q: For CCC/C=C1\OC(=O)c2ccccc21 [(Z)-butylidenephthalide], which “expression of RNA of MGMT” value (MGMT [8]) is on record?
A: reduced

Q: And the “growth inhibition of brain cancer cell line” value (from here on “growth inhibition”) ([1]; 0 to 400 μM, FIG. 10)?
A: effectively inhibit the growth

Q: What about the “growth inhibition” value ([2]; 0 to 400 μM, FIG. 10) of the same molecule?
A: effectively inhibit the growth

Q: And the pIC50 [2]?
A: 3.66

Q: What about the Survival rate ([3]; (Z)-butylidenephthalide (50 mg/kg), Day 0) of the same molecule?
A: 100%

Q: What about the Survival rate ([3]; (Z)-butylidenephthalide (50 mg/kg), Day 5) of the same molecule?
A: 100%

Q: And the Survival rate ([3]; (Z)-butylidenephthalide (50 mg/kg), Day 8)?
A: 100%

Q: What about the Survival rate ([3]; (Z)-butylidenephthalide (50 mg/kg), Day 11) of the same molecule?
A: 100%

Q: What about the Survival rate ([3]; (Z)-butylidenephthalide (50 mg/kg), Day 14) of the same molecule?
A: 100%

Q: What about the Survival rate ([3]; (Z)-butylidenephthalide (50 mg/kg), Day 18) of the same molecule?
A: 100%

Q: What about the Survival rate ([3]; (Z)-butylidenephthalide (50 mg/kg), Day 21) of the same molecule?
A: 66%

Q: What about the Survival rate ([3]; (Z)-butylidenephthalide (50 mg/kg), Day 28) of the same molecule?
A: 0%

Q: What about the Survival rate ([3]; (Z)-butylidenephthalide (50 mg/kg), Day 30) of the same molecule?
A: 0%

Q: What about the Survival rate ([3]; (Z)-butylidenephthalide (100 mg/kg), Day 0) of the same molecule?
A: 100%

Q: And the Survival rate ([3]; (Z)-butylidenephthalide (100 mg/kg), Day 5)?
A: 100%

Q: What about the Survival rate ([3]; (Z)-butylidenephthalide (100 mg/kg), Day 8) of the same molecule?
A: 100%

Q: What about the Survival rate ([3]; (Z)-butylidenephthalide (100 mg/kg), Day 11) of the same molecule?
A: 100%

Q: What about the Survival rate ([3]; (Z)-butylidenephthalide (100 mg/kg), Day 14) of the same molecule?
A: 100%

Q: And the Survival rate ([3]; (Z)-butylidenephthalide (100 mg/kg), Day 18)?
A: 100%

Q: And the Survival rate ([3]; (Z)-butylidenephthalide (100 mg/kg), Day 21)?
A: 66%

Q: And the Survival rate ([3]; (Z)-butylidenephthalide (100 mg/kg), Day 28)?
A: 0%

Q: What about the Survival rate ([3]; (Z)-butylidenephthalide (100 mg/kg), Day 30) of the same molecule?
A: 0%

Q: And the pIC50 [4]?
A: 3.35

Q: And the “expression of proteins of MGMT” value (MGMT [10])?
A: reduced

Q: What about the “Relative tumor size (fold)” value ([5]; SC consecutively for 5 days, 50 mg/kg/day) of the same molecule?
A: 2.7 fold

Q: And the “Relative tumor size (fold)” value ([5]; SC consecutively for 5 days, 100 mg/kg/day)?
A: 2.6 fold

Q: And the “expression of proteins of MGMT” value (MGMT [9])?
A: reduced

Q: And the pIC50 [6]?
A: ~3.60

Q: And the viability at 125 µM ([6]; Concentration 125 μM, read-out: Viability rate of DBTRG(%))?
A: 80%

Q: And the viability at 250 µM ([6]; Concentration 250 μM, read-out: Viability rate of DBTRG(%))?
A: 58%

Q: What about the viability at 500 µM [6, 12] of the same molecule?
A: 30%

Q: And the “growth inhibition” value ([6]; DBTRG, 0 to 400 μM, FIG. 10)?
A: effectively inhibit the growth

Q: And the “growth inhibition” value ([7]; 0 to 400 μM, FIG. 10)?
A: effectively inhibit the growth
